Results reported in US11039613B2, “Germination promoters” (SYNGENTA PARTICIPATIONS AG, priority 2017, dated 2021).
Read-outs that look alike come from different tables or passages of the source.

Experiments:
[1] = test system: NK Falkone corn seeds; experiment: Corn seed germination, cold stress (15° C.); format: in vivo; conditions: for T50 (% vs control): control T50 = 110 hours; for Slope compared with closest prior art compound P2 / T50 compared with closest prior art compound P2: vs P2
Method: The effect of compounds of Formula (II-1 and III-1) on the germination of NK Falkone corn seeds under salt and cold stress was evaluated as follows.
(§1) NK Falkone corn seeds (harvested in 2015) were sorted by size using a sieve to keep away round seeds.
(§2) The corn seeds were placed in 24 well plates (each plate was considered as one experimental unit or replicate). Germination was initiated by the addition of 200 μl of distilled water containing 0.5% DMSO per well. 8 replicates (i.e. 8 plates) were used for each treatment characterization. Plates were sealed using seal foil (Polyolefin Art. Nr. 900320) from HJ-BIOANALYTIK. All plates were placed in two carrousels in a climatic chamber at 15° C. The experiment was laid out in a completely randomized design in climatic chamber with 60% Relative Humidity.
(§3) Germination was followed over time by taking photographs at different time points. Image analysis was performed automatically with a macro which was developed using the Image J software. A dynamic analysis of germination was carried out by fitting a logistic curve. Three parameters were calculated from the logistic curve: the T50; the slope and the plateau. All three parameters have a high agronomical relevance and are key requirements to ensure a good early crop-establishment. The T50 and slope for a selection of compounds are outlined in Table 2 below. All the values are expressed as percentages compared to an untreated control. All the three parameters are calculated considering 8 replicates and the kinetic parameters are separately determined for each germination curve. Data in bold indicate germination enhancing statistically significant differences between treated seeds and untreated control (p<0.05). T50 corresponds to the time needed for half of the seed population to germinate. Higher negative %-values indicate faster germination. Slope indicates how synchronous the germination of the seed population is. Positive values indicate steeper curve. The steeper the curve, the better and more uniform the germination is.

[2] = Hydrolytic stability; format: physicochemical; conditions: for half-life: aqueous buffer/acetonitrile solution, pH 9, pH 9, buffer/acetonitrile; for half-life / % remaining, less polar isomer / % remaining, more polar isomer: 40° C.
Method: Prior to conducting the individual hydrolytic stability assays, stock solutions containing 1000 ppm of each test compound (i.e. compounds III-1 and P1) were prepared in acetonitrile.
The reagents used in the assays were prepared as follows. A 20 mM buffer solution was prepared from a stock solution of 20 mM mixed acetate, borate and phosphate buffer and the pH adjusted to 7 or 9 as required.
Test solutions were prepared in LC vials for each test compound in the following manner: Hydrolytic Stability: Buffer (750 μL)+acetonitrile (250 μL)+compound stock solution (2 to 40 μL).
The buffers were initially dispensed into separate glass LC vials, placed into an autosampler complete with thermostat set at 40° C. and allowed to equilibrate for 30 minutes prior to starting the individual assays.
Analysis was carried out on Waters LCMS systems under reverse phase conditions using 10 cm C18 columns and acetonitrile (HPLC grade) acidified water (0.2% formic acid) mobile phase at a flow rate of 1 ml min-1. Peak detection was at the optimum wavelength (230-250 nm) and peak areas were used for quantification
Reactions were initiated by addition of the compound solution and monitored through a series of repeat injections made directly from the vial into the HPLC system at regular time intervals. Initial and subsequent measurements of peak area attributable to the test compound were used to fit exponential half-lives and calculate first-order rate constants.
Consequently, the percentage of compound remaining was recorded at the last assessment time.

[3] = test system: NK Falkone corn seeds; experiment: Corn seed germination, osmotic stress (PEG 2%) and cold stress (15° C.); format: in vivo; conditions: osmotic (PEG 2%) and cold 15° C.
Method: as §1, §2, §3
(§4) The effect of compounds of Formula (III-1 and P1) on the germination of NK Falkone corn seeds under salt and cold stress was evaluated as follows.
The experimental protocol was the same as in Example B1, except that germination was initiated by the addition of 200 μl of distilled water containing 0.5% DMSO and 2% PEG per well.

[4] = test system: NK Falkone corn seeds; experiment: Corn seed germination, salt (NaCl, 100 mM) and cold stresses (15° C.); format: in vivo; conditions: cold 15° C. and salt 100 mM NaCl
Method: as §1, §2, §3, §4
The experimental protocol was the same as in Example B1, except that germination was initiated by the addition of 200 μl of distilled water containing 0.5% DMSO and 100 mM NaCl per well.

[5] = test system: NK Falkone corn seeds; experiment: Corn seed germination, salt (NaCl, 100 mM) stress and optimal temperature (23° C.); format: in vivo; conditions: salt (NaCl) stress
Method: as §1
as §2, with “Germination was initiated by the addition of 200 μl of distilled water containing 0.5% DMSO per well.” left out
as §3
The experimental protocol was the same as in Example B1, except that the plates were placed in a climatic chamber at 23° C.

[6] = less polar isomer, read-out: Hydrolytic stability pH9 (t½), less polar isomer (converted)
[7] = more polar isomer, read-out: Hydrolytic stability pH9 (t½), more polar isomer

## CC1=C[C@@H](O/C=C2/C(=O)O[C@@H]3Cc4ccccc4[C@H]23)N(c2cc(C(F)(F)F)cc(C(F)(F)F)c2)C1=O [II-1b]
[1]; Rate 10 μM
  Slope (% vs control): 19.20 % vs control
  T50 (% vs control): −2.50 % vs control
[1]; Rate 50 μM
  Slope (% vs control): 41.40 % vs control
  T50 (% vs control): −5.10 % vs control
[1]; Rate 250 μM
  Slope (% vs control): 62.40 % vs control
  T50 (% vs control): −5.90 % vs control
[1]; at equivalent rates
  Slope compared with closest prior art compound P2: higher slope
  T50 compared with closest prior art compound P2: lower T50

## CC1=C[C@H](O/C=C2/C(=O)O[C@@H]3Cc4ccccc4[C@H]23)N(c2cc(C(F)(F)F)cc(C(F)(F)F)c2)C1=O [II-1a]
[1]; Rate 10 μM
  Slope (% vs control): 18.70 % vs control
  T50 (% vs control): −2.70 % vs control
[1]; Rate 50 μM
  Slope (% vs control): 68.50 % vs control
  T50 (% vs control): −5.30 % vs control
[1]; Rate 250 μM
  Slope (% vs control): 37.00 % vs control
  T50 (% vs control): −3.20 % vs control
[1]; at equivalent rates
  Slope compared with closest prior art compound P2: higher slope
  T50 compared with closest prior art compound P2: lower T50

## CC1=CC(O/C=C2/C(=O)OC3c4ccccc4CC23)N(c2cc(C(F)(F)F)cc(C(F)(F)F)c2)C1=O (stereo not shown) [Compound P2, reference compound]
[1]; Rate 2 μM
  Slope (% vs control): −19.5 % vs control
  T50 (% vs control): −0.8 % vs control
[1]; Rate 10 μM
  Slope (% vs control): −13.4 % vs control
  T50 (% vs control): −2.0 % vs control
[1]; Rate 50 μM
  Slope (% vs control): −19.7 % vs control
  T50 (% vs control): −0.9 % vs control

## CC1=CC(O/C=C2/C(=O)NC3Cc4ccccc4C23)N(c2cc(C(F)(F)F)cc(C(F)(F)F)c2)C1=O (stereo not shown) [III-1, (1E)-[[1-[3,5-bis(trifluoromethyl)phenyl]-4-methyl-1-oxo-2H-pyrrol-2-yl]oxymethylene]-3,3a,4,8b-tetrahydroindeno[2,1-b]pyrrol-2-one]
[2]; [6]
  half-life: > 59 h
[2]; [7]
  half-life: > 59 h
[2]; pH 9, at 17.6 hours, less polar isomer
  % remaining, less polar isomer: 97.5% remaining at 17.6 hours
[2]; pH 9, at 17.6 hours, more polar isomer
  % remaining, more polar isomer: 94.9% remaining at 17.6 hours
[2]; pH 9, less polar isomer, vs P1
  Hydrolytic stability compared with less polar isomer of P1: more stable
[1]; Rate 0.4 μM
  Slope (% vs control): 7.3 % vs control
  T50 (% vs control): −0.7 % vs control
[1]; Rate 2 μM
  Slope (% vs control): 14.3 % vs control
  T50 (% vs control): 1.3 % vs control
[1]; Rate 10 μM
  Slope (% vs control): 82.6 % vs control
  T50 (% vs control): −8.5 % vs control
[1]; Rate 50 μM
  Slope (% vs control): 175.6 % vs control
  T50 (% vs control): −10.1 % vs control
[1]; at equivalent rates, vs P1
  Slope compared with closest prior art compound P1: higher slope
[3]; Rate 0.4 μM
  Slope (% vs control): 1 % vs control
  T50 (% vs control): 0.8 % vs control
[3]; Rate 2 μM
  Slope (% vs control): 3.9 % vs control
  T50 (% vs control): −0.2 % vs control
[3]; Rate 10 μM
  Slope (% vs control): 7.6 % vs control
  T50 (% vs control): −3.6 % vs control
[3]; Rate 50 μM
  Slope (% vs control): 23.8 % vs control
  T50 (% vs control): −4.0 % vs control
[3]; at equivalent rates, vs P1
  Slope compared with closest prior art compound P1: higher slope
  T50 compared with closest prior art compound P1: lower T50
[4]; Rate 0.4 μM
  Slope (% vs control): −4 % vs control
  T50 (% vs control): −0.5 % vs control
[4]; Rate 2 μM
  Slope (% vs control): 7.4 % vs control
  T50 (% vs control): −1.2 % vs control
[4]; Rate 10 μM
  Slope (% vs control): 54.1 % vs control
  T50 (% vs control): −9.3 % vs control
[4]; Rate 50 μM
  Slope (% vs control): 114.7 % vs control
  T50 (% vs control): −6.1 % vs control
[5]; Rate 0.4 μM
  Slope (% vs control): 1.2 % vs control
  T50 (% vs control): −0.5 % vs control
[5]; Rate 2 μM
  Slope (% vs control): −0.4 % vs control
  T50 (% vs control): −0.2 % vs control
[5]; Rate 10 μM
  Slope (% vs control): 85.8 % vs control
  T50 (% vs control): −11 % vs control
[5]; Rate 50 μM
  Slope (% vs control): 132.5 % vs control
  T50 (% vs control): −15.9 % vs control
[5]; at equivalent rates, vs P1
  Slope compared with closest prior art compound P1: higher slope
  T50 compared with closest prior art compound P1: lower T50

## CC1=CC(O/C=C2/C(=O)NC3c4ccccc4CC23)N(c2cc(C(F)(F)F)cc(C(F)(F)F)c2)C1=O (stereo not shown) [Compound P1, reference compound]
[2]; [6]
  half-life: 59 h
[2]; [7]
  half-life: > 59 h
[2]; pH 9, at 17.3 hours, less polar isomer
  % remaining, less polar isomer: 85.5% remaining at 17.3 hours
[2]; pH 9, at 17.3 hours, more polar isomer
  % remaining, more polar isomer: 97.9% remaining at 17.3 hours
[1]; Rate 0.4 μM
  Slope (% vs control): 18.4 % vs control
  T50 (% vs control): −2.2 % vs control
[1]; Rate 2 μM
  Slope (% vs control): 7.36 % vs control
  T50 (% vs control): −1.4 % vs control
[1]; Rate 10 μM
  Slope (% vs control): 63.91 % vs control
  T50 (% vs control): −8.95 % vs control
[1]; Rate 50 μM
  Slope (% vs control): 144.52 % vs control
  T50 (% vs control): −11.7 % vs control
[3]; Rate 0.4 μM
  Slope (% vs control): 2.7 % vs control
  T50 (% vs control): −0.8 % vs control
[3]; Rate 2 μM
  Slope (% vs control): 3.2 % vs control
  T50 (% vs control): −0.8 % vs control
[3]; Rate 10 μM
  Slope (% vs control): 20.9 % vs control
  T50 (% vs control): −2.8 % vs control
[3]; Rate 50 μM
  Slope (% vs control): 1.3 % vs control
  T50 (% vs control): −4.3 % vs control
[4]; Rate 0.4 μM
  Slope (% vs control): 14.2 % vs control
  T50 (% vs control): 0.5 % vs control
[4]; Rate 2 μM
  Slope (% vs control): 11.7 % vs control
  T50 (% vs control): −0.3 % vs control
[4]; Rate 10 μM
  Slope (% vs control): 83.9 % vs control
  T50 (% vs control): −10.7 % vs control
[4]; Rate 50 μM
  Slope (% vs control): 61.2 % vs control
  T50 (% vs control): −5.1 % vs control
[5]; Rate 0.4 μM
  Slope (% vs control): 4.1 % vs control
  T50 (% vs control): −0.4 % vs control
[5]; Rate 2 μM
  Slope (% vs control): 2.8 % vs control
  T50 (% vs control): 3.3 % vs control
[5]; Rate 10 μM
  Slope (% vs control): 70.8 % vs control
  T50 (% vs control): −10.2 % vs control
[5]; Rate 50 μM
  Slope (% vs control): 111.4 % vs control
  T50 (% vs control): −15.2 % vs control
